Source: patent US9051579B2, “Herbicide-tolerant plants through bypassing metabolic pathway” (Bayer S.A.S., priority 2000, dated 2015)

Key:
HPP oxidase (HPPO) = test: HPP oxidase activity assay (colorimetric / HPLC), influence of added compounds; format: biochemical, Arthrobacter globiformis; conditions: 115 ppm
From the text: The enzyme reaction is stopped by adding 2,4-dinitrophenylhydrazine (2,4-DNPH), in solution in 2 M HCl. The 2, 4-DNPH reacts with the ketone function in the alpha position of a carboxylic function (example: HPP). […] When the HPP is completely converted to 4-HPA during the enzyme reaction, the hydrazone cannot form, and the characteristic yellow color of 2,4-DHPA is therefore obtained in basic medium. If the HPP is not completely converted to 4-HPA during the enzyme reaction, the formation of hydrazone is possible. These hydrazones are brown in color in basic medium. A variation in color between these two extremes is obtained as a function of the amount of HPP consumed. The absorption measurements are carried out at 445 or 450 nm. In order to make this assay more easy to handle, we adapted it to the 96-well microplate format. The reaction mixture comprises GSH (900 μM); HPP (135 μM); TPP (1.8 mM); MgCl2 (4.5 mM); FAD (4 μM); potassium phosphate buffer (90 mM) pH 7.4. The mixture is kept on ice. 50 μL of the test fraction and 150 μL of reaction mixture are placed in each well. After 20 min at 30° C., the enzyme reaction is stopped with 13 μL of 2,4-DNPH solution (0.1% in 2 M HCl). The mixture is left to react for 20 min at ambient temperature. […] To prepare the standard range, reaction mixtures with varying concentrations of HPP are prepared. […]

Arabidopsis seeds = test: Germination of Arabidopsis seeds on MS medium with DKN, with or without homogentisate; format: in vivo
Protocol: 1 Murashige and Skoog medium (T. Murashige and F. Skoog, 1962. A revised medium for a rapid growth and bioassays with tobacco tissue culture. Physiol. Plant. 15, 473-479), control experiment for germination
2 MS medium plus DKN at a dose of 1 ppm
3 MS medium plus DKN at the same dose+homogentisate at a concentration of 5 mM.

[1] = medium 2: MS medium plus DKN at 1 ppm

CC(C)C1(C)N=C(c2ncccc2C(=O)O)NC1=O (centres unmarked) [imazapyr]
inhibition of the HPPO (HPP oxidase (HPPO)): not inhibited

CS(=O)(=O)c1cc(C(F)(F)F)ccc1C(=O)C(C#N)C(=O)C1CC1 (centres unmarked) [DKN]
germination and pigmentation of the plantlet (Arabidopsis seeds; [1]): germination occurs, but the plantlet which emerges is white, the two cotyledons exhibiting no pigmentation
survival of the plantlets (Arabidopsis seeds; [1]): die in a few days
germination and pigmentation of the plantlet (Arabidopsis seeds; medium 3: MS medium plus DKN 1 ppm + homogentisate 5 mM): germination occurs normally, the cotyledons are clearly green
later development of the plants (Arabidopsis seeds; medium 3: MS medium plus DKN 1 ppm + homogentisate 5 mM, as homogentisate in the medium decreases): the first symptoms of bleaching appear and plant growth stops, they end up dying
